Data on 1 compound can be found in paper PMC3216923 (2011).

Assay in all cases: isothermal titration calorimetry
On the technique in general: Isothermal titration calorimetry measures the heat released or taken up as one component is titrated into another.

In test [1] the test system is TelQ (DNA, G4) TTAGGGTTAGGGTTAGGGTTAGGG
Particulars: 10 mM Na phosphate, pH 6.5, 25°C.

The test system of test [2] is TelM (DNA, single strand) TTAGGGTTAGAGTTAGGGTTAGGG
Particulars: 100 mM NaCl; 10 mM Na phosphate, pH 6.5, 25°C; site 1 of 2.

Test [3] concerns dsDNA (DNA, duplex) TTAGGGTTAGGGTTAGGGTTAGGG/CCCTAACCCTAACCCTAACCCTAA
Particulars: 100 mM NaCl or 100 mM KCl (not specified), Na+ 10 mM (Na phosphate), pH 6.5, 25°C.

With `CC(=N)NCCNc1c2c(c(NCCNC(C)=N)c3sccc13)C(=O)c1ccccc1C2=O`, the K ass is given as 10.6±1.7 × 10^6 M^-1 in test [1] (100 mM KCl, text prints 1.0±0.15 × 10^7); 0.9±0.1 × 10^6 M^-1 in test [1] (100 mM NaCl); 200±70 × 10^6 M^-1 in test [2]; 2.2±0.1 × 10^6 M^-1 in test [3].
